In ChEMBL document CHEMBL1201862, “PubChem BioAssay data set” (2004):
Activity calls are given as the source filed them.

How the values were obtained:
[1] = Luminescence Cell-Based Dose Retest to Confirm Inhibitors of Cancer Stem Cells. [Related pubchem assays (depositor defined):AID2717, AID2721]; type: functional; settings: Homo sapiens
[2] = target: T1, Latent membrane protein 1 (Human herpesvirus 4 (strain B95-8), UniProt P03230); experiment: LMP1 TES1 pathway selectivity over dsRED control – imaging, HEK293T, dual-color eGFP/dsRED, cherry-picks, selectivity assay for LMP1 NF-kB inhibitor project, dose response (AID 588398); type: functional, cell-based
T1 sequence (P03230 whole entry): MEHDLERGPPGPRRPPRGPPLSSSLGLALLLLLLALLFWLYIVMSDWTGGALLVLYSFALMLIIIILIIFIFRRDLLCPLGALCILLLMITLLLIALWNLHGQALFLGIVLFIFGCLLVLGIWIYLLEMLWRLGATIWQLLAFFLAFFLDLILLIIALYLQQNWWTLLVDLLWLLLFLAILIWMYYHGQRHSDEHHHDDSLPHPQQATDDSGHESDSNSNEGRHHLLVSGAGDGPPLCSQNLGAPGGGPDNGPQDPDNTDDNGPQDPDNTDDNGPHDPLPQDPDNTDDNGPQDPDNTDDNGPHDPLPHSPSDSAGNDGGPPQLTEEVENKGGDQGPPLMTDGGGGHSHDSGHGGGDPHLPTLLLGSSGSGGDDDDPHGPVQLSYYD

Vero [3] = experiment: mammalian cell viability reduction – secondary assay, cytotoxicity control for West Nile virus antiviral project, dose response (AID 1650); type: functional; settings: Chlorocebus sabaeus
HEK293 = experiment: EBV LMP1 TES2 canonical NF-kB signalling blockers – cell-based, HEK293, luciferase, cherry-pick, dose response (AID 588343); type: functional; settings: Homo sapiens
[4] = target: T2, Sentrin-specific protease 7 (Homo sapiens, UniProt Q9BQF6); type: functional;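 further: Luminescence-based dose-response confirmation of ultra-high-throughput screening hits, measuring inhibition of SENP7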
T2 sequence (Q9BQF6 whole entry): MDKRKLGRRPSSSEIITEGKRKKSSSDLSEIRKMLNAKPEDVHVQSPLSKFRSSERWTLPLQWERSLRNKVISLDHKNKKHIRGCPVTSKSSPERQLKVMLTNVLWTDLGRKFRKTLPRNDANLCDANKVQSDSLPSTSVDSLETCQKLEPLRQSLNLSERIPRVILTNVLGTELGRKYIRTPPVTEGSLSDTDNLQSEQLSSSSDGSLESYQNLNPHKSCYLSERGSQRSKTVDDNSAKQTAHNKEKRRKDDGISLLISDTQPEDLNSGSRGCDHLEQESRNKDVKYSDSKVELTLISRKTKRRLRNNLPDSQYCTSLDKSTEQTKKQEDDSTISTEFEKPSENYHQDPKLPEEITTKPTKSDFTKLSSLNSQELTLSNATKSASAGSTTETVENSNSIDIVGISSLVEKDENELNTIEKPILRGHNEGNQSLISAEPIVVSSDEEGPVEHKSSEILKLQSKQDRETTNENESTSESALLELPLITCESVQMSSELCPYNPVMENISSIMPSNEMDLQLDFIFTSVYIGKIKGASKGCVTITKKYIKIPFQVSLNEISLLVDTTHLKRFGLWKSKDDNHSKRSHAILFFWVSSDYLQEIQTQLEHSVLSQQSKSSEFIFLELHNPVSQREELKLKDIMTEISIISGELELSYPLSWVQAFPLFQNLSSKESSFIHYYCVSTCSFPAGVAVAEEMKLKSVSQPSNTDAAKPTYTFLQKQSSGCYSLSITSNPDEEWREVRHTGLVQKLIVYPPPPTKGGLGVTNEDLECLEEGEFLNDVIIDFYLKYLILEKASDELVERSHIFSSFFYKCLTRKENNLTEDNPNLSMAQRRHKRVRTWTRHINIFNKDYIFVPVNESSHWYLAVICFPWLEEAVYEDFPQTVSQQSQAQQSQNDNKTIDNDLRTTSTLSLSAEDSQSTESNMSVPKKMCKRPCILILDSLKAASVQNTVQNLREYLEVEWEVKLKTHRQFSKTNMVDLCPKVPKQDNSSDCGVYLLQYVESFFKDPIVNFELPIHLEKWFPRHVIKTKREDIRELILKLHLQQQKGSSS

[5] = target: T3, Sentrin-specific protease 6 (Homo sapiens, UniProt Q9GZR1); type: functional;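 further: Luminescence-based dose-response confirmatory assay of SENP6 inhibition, following up an ultra-high-throughput screen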
T3 sequence (Q9GZR1 whole entry): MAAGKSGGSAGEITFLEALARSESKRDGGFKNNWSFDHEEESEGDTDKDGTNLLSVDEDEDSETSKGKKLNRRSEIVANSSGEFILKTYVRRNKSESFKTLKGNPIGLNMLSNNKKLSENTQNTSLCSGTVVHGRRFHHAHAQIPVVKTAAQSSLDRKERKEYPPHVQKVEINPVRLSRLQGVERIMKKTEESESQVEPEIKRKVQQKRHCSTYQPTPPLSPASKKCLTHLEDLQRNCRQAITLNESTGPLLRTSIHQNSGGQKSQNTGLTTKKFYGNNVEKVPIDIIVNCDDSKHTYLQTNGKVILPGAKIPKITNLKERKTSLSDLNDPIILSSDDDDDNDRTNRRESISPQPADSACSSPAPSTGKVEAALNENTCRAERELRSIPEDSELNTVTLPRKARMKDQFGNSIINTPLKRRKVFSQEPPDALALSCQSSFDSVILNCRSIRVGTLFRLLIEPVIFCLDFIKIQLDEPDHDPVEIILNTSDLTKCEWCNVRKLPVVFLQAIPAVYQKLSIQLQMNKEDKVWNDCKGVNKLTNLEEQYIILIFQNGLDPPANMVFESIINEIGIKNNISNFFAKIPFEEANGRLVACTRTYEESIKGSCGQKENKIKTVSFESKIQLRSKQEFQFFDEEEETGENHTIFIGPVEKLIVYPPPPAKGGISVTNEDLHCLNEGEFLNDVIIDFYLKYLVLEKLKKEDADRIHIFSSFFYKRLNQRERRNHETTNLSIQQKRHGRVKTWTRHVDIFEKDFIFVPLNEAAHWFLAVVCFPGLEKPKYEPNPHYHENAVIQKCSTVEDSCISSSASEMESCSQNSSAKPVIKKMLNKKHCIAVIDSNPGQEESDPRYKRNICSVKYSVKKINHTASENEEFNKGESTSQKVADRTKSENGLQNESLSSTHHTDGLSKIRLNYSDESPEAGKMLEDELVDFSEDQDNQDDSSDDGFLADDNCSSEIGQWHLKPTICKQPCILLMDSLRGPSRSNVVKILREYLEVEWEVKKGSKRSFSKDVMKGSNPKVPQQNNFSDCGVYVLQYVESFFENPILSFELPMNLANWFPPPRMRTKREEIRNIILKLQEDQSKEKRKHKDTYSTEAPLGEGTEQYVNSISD

Caspase-3 = target: T4, Caspase-3 (Homo sapiens, UniProt P42574); type: functional;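 further: Dose-response selectivity test against caspase-3 for candidate inhibitors of sentrin-specific proteases (SENPs)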
T4 sequence (P42574 whole entry): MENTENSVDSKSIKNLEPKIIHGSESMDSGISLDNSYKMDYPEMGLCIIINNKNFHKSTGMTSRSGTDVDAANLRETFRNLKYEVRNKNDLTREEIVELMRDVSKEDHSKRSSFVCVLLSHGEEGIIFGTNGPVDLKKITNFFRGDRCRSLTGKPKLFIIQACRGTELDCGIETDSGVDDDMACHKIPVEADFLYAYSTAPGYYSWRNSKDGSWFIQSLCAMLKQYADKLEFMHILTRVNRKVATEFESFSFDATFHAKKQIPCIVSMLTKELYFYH

HeLa = experiment: ATP-based viability loss in HeLa cells – cell-based, CellTiter-Glo luminescence, cherry-pick samples, cytotoxicity control for MITF activator project, dose response (AID 540259); type: functional; settings: Homo sapiens
[6] = target: T5, Sentrin-specific protease 8 (Homo sapiens, UniProt Q96LD8); type: functional;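 further: luminescence read-out of SENP8 inhibition, dose-response confirmation following an ultra-high-throughput screen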
T5 sequence (Q96LD8 whole entry): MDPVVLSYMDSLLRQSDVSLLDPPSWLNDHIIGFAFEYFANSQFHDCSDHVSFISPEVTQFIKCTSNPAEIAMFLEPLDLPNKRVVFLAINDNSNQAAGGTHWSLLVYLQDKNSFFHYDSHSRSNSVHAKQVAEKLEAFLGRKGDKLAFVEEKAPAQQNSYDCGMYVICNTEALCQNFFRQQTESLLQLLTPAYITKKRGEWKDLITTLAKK

INS1 = experiment: INS-1E survival protection against cytokine death – cell-based, luminescence, retest, dose response (AID 449756); type: functional; settings: Rattus norvegicus;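 further: cell death triggered by IL-1 beta plus TNF-alpha plus IFN-gamma mixture; protective hits raise ATP signal compared with cytokine alone wells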
[7] = Trypanosoma cruzi growth suppression in host cells – NIH3T3 host cells, beta-gal luminescence, confirmation (AID 2044); type: functional, cell-based;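 further: intracellular parasites grown in NIH/3T3 mouse fibroblasts as host cells; luminescent beta-galactosidase reporter signal from transgenic T. cruzi replicating inside host cells; inhibitors lower the luminescence signal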
[8] = NIH3T3 cell viability loss – ATP luminescence, mouse fibroblasts, counter-screen, dose response (AID 2010); type: functional, cell-based;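 further: cells exposed to compound for about 90 hours before reading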
Protein Wnt-3a = Protein Wnt-3a (Mus musculus, UniProt P27467); experiment: antagonism of Wnt3a pathway luciferase reporter – Wnt-LIGHT cells, luminescence, selectivity assay for Gli-SUFU antagonist project, dose response (AID 651570); type: functional; settings: read-out: IC50_Mean;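 further: Wnt-LIGHT reporter cells stimulated with conditioned medium from Wnt3a-producing cells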
Vero [9] = experiment: viability of Vero cells under compound – cytotoxicity control for flavivirus capping enzyme inhibitors (AID 588742); type: functional; settings: Chlorocebus sabaeus
Genome polyprotein = Genome polyprotein (dengue virus type 2, UniProt P29990); experiment: flavivirus cap methylation enzyme inhibition – biochemical, confirmation dose response, primary screen (AID 588689); type: functional
Genome polyprotein, sequence (P29990 2492-3391 limits assumed): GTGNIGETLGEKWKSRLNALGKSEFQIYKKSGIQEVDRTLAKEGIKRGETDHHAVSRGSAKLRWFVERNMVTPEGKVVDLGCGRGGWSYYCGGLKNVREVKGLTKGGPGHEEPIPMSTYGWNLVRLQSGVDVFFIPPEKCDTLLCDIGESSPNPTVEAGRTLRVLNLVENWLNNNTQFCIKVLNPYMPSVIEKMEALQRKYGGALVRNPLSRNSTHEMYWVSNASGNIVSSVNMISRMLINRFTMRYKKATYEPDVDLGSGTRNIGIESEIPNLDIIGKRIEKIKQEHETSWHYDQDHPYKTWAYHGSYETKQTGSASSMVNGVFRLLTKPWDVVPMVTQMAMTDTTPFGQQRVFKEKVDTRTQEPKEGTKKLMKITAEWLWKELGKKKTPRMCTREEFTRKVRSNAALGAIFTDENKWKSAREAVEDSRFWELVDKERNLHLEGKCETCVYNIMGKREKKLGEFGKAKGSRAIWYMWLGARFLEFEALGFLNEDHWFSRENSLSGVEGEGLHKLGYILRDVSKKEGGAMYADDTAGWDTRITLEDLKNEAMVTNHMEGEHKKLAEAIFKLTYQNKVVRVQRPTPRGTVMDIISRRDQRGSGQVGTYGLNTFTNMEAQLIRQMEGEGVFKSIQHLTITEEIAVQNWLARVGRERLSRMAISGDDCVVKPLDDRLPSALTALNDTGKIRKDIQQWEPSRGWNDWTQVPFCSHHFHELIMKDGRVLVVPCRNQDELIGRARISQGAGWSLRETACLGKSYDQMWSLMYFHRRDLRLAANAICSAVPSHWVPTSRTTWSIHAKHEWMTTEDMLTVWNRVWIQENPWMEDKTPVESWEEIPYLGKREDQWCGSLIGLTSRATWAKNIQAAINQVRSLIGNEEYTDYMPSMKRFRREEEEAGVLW

Protein Wnt-3a, sequence (P27467 whole entry): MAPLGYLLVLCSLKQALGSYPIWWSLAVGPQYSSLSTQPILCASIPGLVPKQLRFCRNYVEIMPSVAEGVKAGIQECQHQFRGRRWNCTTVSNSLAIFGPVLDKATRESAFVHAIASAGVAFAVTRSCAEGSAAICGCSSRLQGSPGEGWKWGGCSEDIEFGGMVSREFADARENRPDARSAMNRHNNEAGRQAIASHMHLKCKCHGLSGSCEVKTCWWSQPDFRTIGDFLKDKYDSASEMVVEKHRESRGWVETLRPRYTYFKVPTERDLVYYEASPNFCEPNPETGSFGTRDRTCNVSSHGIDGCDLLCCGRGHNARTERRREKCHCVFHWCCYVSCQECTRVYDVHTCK

Question: For `O=C(Nc1cc(C(F)(F)F)cc(C(F)(F)F)c1)Nc1cnn(-c2ccc([N+](=O)[O-])cc2)c1C(F)(F)F`, which AC50 [1] is on record?
Answer: 0.442 µM (active)

Question: What about the AC50 [2] of the same compound?
Answer: 3.91 µM (active)

Question: What about the CC50 (Vero [3]) of the same compound?
Answer: 2.94 µM (active)

Question: What about the AC50 (HEK293) of the same compound?
Answer: 1.12 µM (active)

Question: Which results are given for `CC(C)NC(=O)c1ccc2c3n(nc2c1)-c1ccc(Cl)cc1CO3`?
Answer: IC50 [4]: 18.4 µM (active); IC50 [5]: 81.8 µM (active); IC50 (Caspase-3): 24 µM (active); AC50 (HeLa): 50.7 µM (active); IC50 [6]: 69.3 µM (active)

Question: With `Cc1ccc2c(c1)S/C(=C/c1ccc[n+](C)c1)N2CCO` as the compound, how does the AC50 (INS1) read?
Answer: 3.77 µM (active)

Question: What about the EC50 [7] of the same compound?
Answer: 1.16 µM (active)

Question: And the EC50 [8]?
Answer: > 60 µM (not active)

Question: And the IC50 (Protein Wnt-3a)?
Answer: 26.7 µM (inactive)

Question: Which results are given for `O=C(c1ccccc1)c1ccc(O)c(O)c1O`?
Answer: CC50 (Vero [9]): > 40 µM (active); IC50 (Genome polyprotein): 57.7 µM (active)

Question: Which IC50 (Protein Wnt-3a) does the source give for `Nc1ccc(Br)cc1-c1nc2ccccc2[nH]c1=O` here?
Answer: 0.449 µM (active)
